Measurements: PubChem BioAssay AID1963841 (Molecular Pharmacology Branch, DTP, NCI, 2024)

Test system: 439559-082-T-J2-PDC spheroid viability
Assay: Anticancer human tumor 439559-082-T-J2-PDC patient-derived colon adenocarcinoma cell line growth inhibition [POLQ]
Details: spheroids with HUVEC and MSC; for IC50: curve of first compound; for viability, T/C: stronger effect = lower value
Outline: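 Complex spheroid viability model combining PDC tumour cells with endothelial (HUVEC) and MSC stromal cells. Novobiocin, ART-558 or RP6685 were tested singly and in combination with standard and investigational anticancer drugs. Each was titrated in half-log steps from near clinical Cmax, or from 10 microM where Cmax was unknown.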

[1] = second compound 0.0316 µM, first compound 0.0316 µM
[2] = second compound 0.0316 µM, first compound 0.1 µM
[3] = second compound 0.0316 µM, first compound 0.316 µM
[4] = second compound 0.0316 µM, first compound 1 µM
[5] = second compound 0.0316 µM, first compound 3.16 µM
[6] = second compound 0.0316 µM, first compound 10 µM
[7] = second compound 0.1 µM, first compound 0.0316 µM
[8] = second compound 0.1 µM, first compound 0.1 µM
[9] = second compound 0.1 µM, first compound 0.316 µM
[10] = second compound 0.1 µM, first compound 1 µM
[11] = second compound 0.1 µM, first compound 3.16 µM
[12] = second compound 0.1 µM, first compound 10 µM
[13] = second compound 0.316 µM, first compound 0.0316 µM
[14] = second compound 0.316 µM, first compound 0.1 µM
[15] = second compound 0.316 µM, first compound 0.316 µM
[16] = second compound 0.316 µM, first compound 1 µM
[17] = second compound 0.316 µM, first compound 3.16 µM
[18] = second compound 0.316 µM, first compound 10 µM
[19] = second compound 1 µM, first compound 0.0316 µM
[20] = second compound 1 µM, first compound 0.1 µM
[21] = second compound 1 µM, first compound 0.316 µM
[22] = second compound 1 µM, first compound 1 µM
[23] = second compound 1 µM, first compound 3.16 µM
[24] = second compound 1 µM, first compound 10 µM
[25] = second compound 3.16 µM, first compound 0.0316 µM
[26] = second compound 3.16 µM, first compound 0.1 µM
[27] = second compound 3.16 µM, first compound 0.316 µM
[28] = second compound 3.16 µM, first compound 1 µM
[29] = second compound 3.16 µM, first compound 3.16 µM
[30] = second compound 3.16 µM, first compound 10 µM
[31] = second compound 10 µM, first compound 0.0316 µM
[32] = second compound 10 µM, first compound 0.1 µM
[33] = second compound 10 µM, first compound 0.316 µM
[34] = second compound 10 µM, first compound 1 µM
[35] = second compound 10 µM, first compound 3.16 µM
[36] = second compound 10 µM, first compound 10 µM
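Note: spheroids exposed to compounds for seven days before readout.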
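Throughout, for viability, T/C: 100% = DMSO vehicle control viability.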

**Q.** `C#Cc1c(F)ccc2cc(O)cc(-c3ncc4c(N5CC6CCC(C5)N6)nc(OCC56CCCN5CC(F)C6)nc4c3F)c12` (stereo unspecified) + Cc1cccc(N(C)C(=O)C2C(O)CCN2c2nc(C)cc(C(F)(F)F)c2C#N)c1 was tested. Which IC50 (second compound 0.0316 µM) did it give?
**A.** > 10 µM

**Q.** And the IC50 (second compound 0.1 µM)?
**A.** > 10 µM

**Q.** What about the IC50 (second compound 0.316 µM) of the same molecule?
**A.** > 10 µM

**Q.** What about the IC50 (second compound 1 µM) of the same molecule?
**A.** > 10 µM

**Q.** What about the IC50 (second compound 3.16 µM) of the same molecule?
**A.** > 10 µM

**Q.** And the IC50 (second compound 10 µM)?
**A.** 7.64 µM

**Q.** What about the viability, T/C [1] of the same molecule?
**A.** 92%

**Q.** What about the viability, T/C [2] of the same molecule?
**A.** 86.6%

**Q.** And the viability, T/C [3]?
**A.** 72.3%

**Q.** And the viability, T/C [4]?
**A.** 63.1%

**Q.** And the viability, T/C [5]?
**A.** 61.9%

**Q.** What about the viability, T/C [6] of the same molecule?
**A.** 52.5%

**Q.** And the viability, T/C [7]?
**A.** 100%

**Q.** And the viability, T/C [8]?
**A.** 81.5%

**Q.** What about the viability, T/C [9] of the same molecule?
**A.** 72.1%

**Q.** What about the viability, T/C [10] of the same molecule?
**A.** 70.7%

**Q.** And the viability, T/C [11]?
**A.** 59.2%

**Q.** What about the viability, T/C [12] of the same molecule?
**A.** 55%

**Q.** And the viability, T/C [13]?
**A.** 99%

**Q.** What about the viability, T/C [14] of the same molecule?
**A.** 87.6%

**Q.** And the viability, T/C [15]?
**A.** 72%

**Q.** What about the viability, T/C [16] of the same molecule?
**A.** 69.9%

**Q.** And the viability, T/C [17]?
**A.** 61.2%

**Q.** And the viability, T/C [18]?
**A.** 60.3%

**Q.** And the viability, T/C [19]?
**A.** 87.6%

**Q.** And the viability, T/C [20]?
**A.** 78.1%

**Q.** What about the viability, T/C [21] of the same molecule?
**A.** 72.4%

**Q.** And the viability, T/C [22]?
**A.** 66.7%

**Q.** And the viability, T/C [23]?
**A.** 62%

**Q.** What about the viability, T/C [24] of the same molecule?
**A.** 51.8%

**Q.** And the viability, T/C [25]?
**A.** 94.5%

**Q.** What about the viability, T/C [26] of the same molecule?
**A.** 80.9%

**Q.** And the viability, T/C [27]?
**A.** 69.8%

**Q.** What about the viability, T/C [28] of the same molecule?
**A.** 65.7%

**Q.** What about the viability, T/C [29] of the same molecule?
**A.** 63.2%

**Q.** And the viability, T/C [30]?
**A.** 52.5%

**Q.** What about the viability, T/C [31] of the same molecule?
**A.** 81.2%

**Q.** What about the viability, T/C [32] of the same molecule?
**A.** 69.1%

**Q.** What about the viability, T/C [33] of the same molecule?
**A.** 69%

**Q.** What about the viability, T/C [34] of the same molecule?
**A.** 58.1%

**Q.** And the viability, T/C [35]?
**A.** 58.2%

**Q.** And the viability, T/C [36]?
**A.** 46.7%

**Q.** Which IC50 (second compound 0.0316 µM) does the source give for `C=CC(=O)N1CCN(c2nc(=O)n(-c3c(C)ccnc3C(C)C)c3nc(-c4c(O)cccc4F)c(F)cc23)C(C)C1` (stereo unspecified) + Cc1cccc(N(C)C(=O)C2C(O)CCN2c2nc(C)cc(C(F)(F)F)c2C#N)c1 here?
**A.** > 10 µM

**Q.** And the IC50 (second compound 0.1 µM)?
**A.** > 10 µM

**Q.** And the IC50 (second compound 0.316 µM)?
**A.** > 10 µM

**Q.** What about the IC50 (second compound 1 µM) of the same molecule?
**A.** > 10 µM

**Q.** And the IC50 (second compound 3.16 µM)?
**A.** > 10 µM

**Q.** And the IC50 (second compound 10 µM)?
**A.** > 10 µM

**Q.** And the viability, T/C [1]?
**A.** 101%

**Q.** What about the viability, T/C [2] of the same molecule?
**A.** 93.8%

**Q.** And the viability, T/C [3]?
**A.** 95.7%

**Q.** What about the viability, T/C [4] of the same molecule?
**A.** 108%

**Q.** What about the viability, T/C [5] of the same molecule?
**A.** 103%

**Q.** What about the viability, T/C [6] of the same molecule?
**A.** 94.9%

**Q.** What about the viability, T/C [7] of the same molecule?
**A.** 101%

**Q.** What about the viability, T/C [8] of the same molecule?
**A.** 103%

**Q.** And the viability, T/C [9]?
**A.** 97%

**Q.** And the viability, T/C [10]?
**A.** 99.4%

**Q.** And the viability, T/C [11]?
**A.** 107%

**Q.** What about the viability, T/C [12] of the same molecule?
**A.** 100%

**Q.** What about the viability, T/C [13] of the same molecule?
**A.** 92.7%

**Q.** And the viability, T/C [14]?
**A.** 96.9%

**Q.** What about the viability, T/C [15] of the same molecule?
**A.** 98%

**Q.** What about the viability, T/C [16] of the same molecule?
**A.** 94.9%

**Q.** What about the viability, T/C [17] of the same molecule?
**A.** 96%

**Q.** And the viability, T/C [18]?
**A.** 96.5%

**Q.** What about the viability, T/C [19] of the same molecule?
**A.** 107%

**Q.** What about the viability, T/C [20] of the same molecule?
**A.** 97.8%

**Q.** And the viability, T/C [21]?
**A.** 96.5%

**Q.** What about the viability, T/C [22] of the same molecule?
**A.** 96.5%

**Q.** And the viability, T/C [23]?
**A.** 96%

**Q.** And the viability, T/C [24]?
**A.** 98%

**Q.** What about the viability, T/C [25] of the same molecule?
**A.** 101%

**Q.** And the viability, T/C [26]?
**A.** 96.6%

**Q.** What about the viability, T/C [27] of the same molecule?
**A.** 92.4%

**Q.** What about the viability, T/C [28] of the same molecule?
**A.** 95.6%

**Q.** And the viability, T/C [29]?
**A.** 96.9%

**Q.** What about the viability, T/C [30] of the same molecule?
**A.** 101%

**Q.** What about the viability, T/C [31] of the same molecule?
**A.** 98.2%

**Q.** And the viability, T/C [32]?
**A.** 93.8%

**Q.** And the viability, T/C [33]?
**A.** 88%

**Q.** And the viability, T/C [34]?
**A.** 83.6%

**Q.** And the viability, T/C [35]?
**A.** 97.1%

**Q.** What about the viability, T/C [36] of the same molecule?
**A.** 90.2%

**Q.** Which IC50 (second compound 0.0316 µM) does the source give for `CC(C)n1c(=O)n(C)c2cnc3cc(F)c(-c4ccc(OCCCN5CCCCC5)nc4)cc3c21` + Cc1cccc(N(C)C(=O)C2C(O)CCN2c2nc(C)cc(C(F)(F)F)c2C#N)c1 here?
**A.** > 10 µM

**Q.** And the IC50 (second compound 0.1 µM)?
**A.** > 10 µM

**Q.** What about the IC50 (second compound 0.316 µM) of the same molecule?
**A.** > 10 µM

**Q.** And the IC50 (second compound 1 µM)?
**A.** > 10 µM

**Q.** What about the IC50 (second compound 3.16 µM) of the same molecule?
**A.** > 10 µM

**Q.** And the IC50 (second compound 10 µM)?
**A.** > 10 µM

**Q.** What about the viability, T/C [1] of the same molecule?
**A.** 103%

**Q.** And the viability, T/C [2]?
**A.** 106%

**Q.** What about the viability, T/C [3] of the same molecule?
**A.** 109%

**Q.** What about the viability, T/C [4] of the same molecule?
**A.** 116%

**Q.** What about the viability, T/C [5] of the same molecule?
**A.** 99.8%

**Q.** And the viability, T/C [6]?
**A.** 93.9%

**Q.** What about the viability, T/C [7] of the same molecule?
**A.** 115%

**Q.** What about the viability, T/C [8] of the same molecule?
**A.** 105%

**Q.** What about the viability, T/C [9] of the same molecule?
**A.** 107%

**Q.** And the viability, T/C [10]?
**A.** 111%

**Q.** And the viability, T/C [11]?
**A.** 109%

**Q.** What about the viability, T/C [12] of the same molecule?
**A.** 94%

**Q.** And the viability, T/C [13]?
**A.** 103%

**Q.** And the viability, T/C [14]?
**A.** 104%

**Q.** And the viability, T/C [15]?
**A.** 108%

**Q.** And the viability, T/C [16]?
**A.** 107%

**Q.** And the viability, T/C [17]?
**A.** 110%

**Q.** What about the viability, T/C [18] of the same molecule?
**A.** 102%

**Q.** What about the viability, T/C [19] of the same molecule?
**A.** 108%

**Q.** What about the viability, T/C [20] of the same molecule?
**A.** 103%

**Q.** And the viability, T/C [21]?
**A.** 108%

**Q.** And the viability, T/C [22]?
**A.** 115%

**Q.** And the viability, T/C [23]?
**A.** 108%

**Q.** And the viability, T/C [24]?
**A.** 87.4%

**Q.** And the viability, T/C [25]?
**A.** 93.5%

**Q.** What about the viability, T/C [26] of the same molecule?
**A.** 111%

**Q.** What about the viability, T/C [27] of the same molecule?
**A.** 96.9%

**Q.** What about the viability, T/C [28] of the same molecule?
**A.** 112%

**Q.** And the viability, T/C [29]?
**A.** 103%

**Q.** And the viability, T/C [30]?
**A.** 81.5%

**Q.** What about the viability, T/C [31] of the same molecule?
**A.** 96.5%

**Q.** And the viability, T/C [32]?
**A.** 93.6%

**Q.** And the viability, T/C [33]?
**A.** 108%

**Q.** What about the viability, T/C [34] of the same molecule?
**A.** 101%

**Q.** What about the viability, T/C [35] of the same molecule?
**A.** 97.6%

**Q.** And the viability, T/C [36]?
**A.** 87.4%
